We go through 65 compounds from PubChem BioAssay AID844 (SRMLSC, 2007).

By EC50 is commonly meant the midpoint of the concentration-response curve.

Activity calls are given as the source filed them. No rule for the calls is given here.

In this experiment the test system is MRP1 cells, doxorubicin viability shift, 10 uM compound. Description: doxorubicin EC50 increase in MRP-1 cells, dose response, cell-based, doxorubicin EC50 shift (AID 844). To be noted: for EC50: measured here: doxorubicin EC50 with compound.

`Cc1cc(C)nc(N/N=C/c2cccc3ccccc23)n1`: the fold increase in Dox EC50 was 1 (inactive) and the concentration for a half-maximal effect (EC50) came out at 5.39 µM.

`Cc1cccc(-c2cc3nc(C)cc(N4CC(C)CC(C)C4)n3n2)c1` (stereo not given): the fold increase in Dox EC50 is 0.49 (inactive) and the EC50 was 2.65 µM.

As to `CCN(CC)S(=O)(=O)c1cccc(NC(=O)CCSc2ccc(Cl)cc2)c1`, the fold increase in Dox EC50 is 0.89 (inactive) and the half-maximal effective concentration (EC50) is 4.81 µM.

Take `Cc1cccc(N2CCN(C(=O)Cc3ccc(Br)cc3)CC2)c1C`: the fold increase in Dox EC50 is 0.95 (inactive) and the half-maximal effective concentration (EC50) worked out at 5.11 µM.

On to `O=C(CSCc1ccc(Cl)cc1)N1CCN(Cc2ccc3c(c2)OCO3)CC1`, for which the fold increase in Dox EC50 is 0.77 (inactive) and the half-maximal effective concentration (EC50) was determined as 4.18 µM.

With `CCOc1ccc2nc(SCC#N)c(C#N)cc2c1`, the fold increase in Dox EC50 is 0.3 (inactive) and the EC50 was found to be 1.62 µM.

On to `O=C1CC(c2ccccc2)c2cc(O)ccc2O1` (stereo not given), for which the fold increase in Dox EC50 is 0.99 (inactive) and the EC50 was determined as 5.35 µM.

For `CC(=O)N1CCN=C1SCc1ccccc1F`, the fold increase in Dox EC50 is 0.78 (inactive) and the EC50 is 4.2 µM.

As to `COc1cccc(Nc2nc3ccccc3nc2-n2nc(C)cc2C)c1`, the fold increase in Dox EC50 was 0.35 (inactive) and the concentration for a half-maximal effect (EC50) was 1.89 µM.

Take `O=C(Nc1nnc(COc2ccc(Cl)cc2)s1)C1CCCO1` (stereo not given): the fold increase in Dox EC50 was 1.2 (inactive) and the half-maximal effective concentration (EC50) was 6.46 µM.

Consider `NC1=NC(=O)/C(=C/c2cn(CCC(=O)O)nc2-c2ccc(Cl)cc2)S1`, for which the fold increase in Dox EC50 is 0.93 (inactive) and the concentration giving a half-maximal response (EC50) is 5.01 µM.

In the case of `O=C(Nc1cccnc1)C1CC(c2ccc(Cl)c(Cl)c2)=NO1` (stereo not given), the fold increase in Dox EC50 is 1.32 (inactive) and the EC50 turned out to be 7.13 µM.

For the compound `Cc1ccc(CC2S/C(=C(/C#N)C(=O)N3CCOCC3)N(c3ccccc3)C2=O)cc1` (stereo not given), the fold increase in Dox EC50 is 1.18 (inactive) and the concentration giving a half-maximal response (EC50) was 6.38 µM.

Consider `CC(CCc1ccccc1)NC(=O)c1nnc(Cc2ccc(Cl)cc2)o1` (stereo not given), for which the fold increase in Dox EC50 is 1.13 (inactive) and the EC50 turned out to be 6.1 µM.

For the compound `Cc1nn(Cc2ccc(Cl)cc2Cl)c(C)c1NC(=O)c1ccc(COc2cc(Cl)ccc2Cl)o1`, the fold increase in Dox EC50 is 0.82 (inactive) and the concentration giving a half-maximal response (EC50) turned out to be 4.4 µM.

Take `CCOc1ccccc1Nc1ncnc2c1cnn2-c1ccccc1`: the fold increase in Dox EC50 was 0.57 (inactive) and the EC50 stood at 3.08 µM.

With `Cc1nnc(NC(=O)COc2ccccc2)s1`, the fold increase in Dox EC50 was 1.25 (inactive) and the EC50 was found to be 6.73 µM.

As for `Brc1cc2c(cc1COc1ccc(-c3nn[nH]n3)cc1)OCO2`, the fold increase in Dox EC50 was 1.73 and the EC50 turned out to be 9.31 µM.

With `c1ccc(OCCSc2nc3ccccc3[nH]2)cc1`, the fold increase in Dox EC50 was 1.03 (inactive) and the concentration for a half-maximal effect (EC50) stood at 5.54 µM.

In the case of `O=C(NNC1=C(C(=O)C(F)(F)F)CCC1)c1cccc(Cl)c1`, the fold increase in Dox EC50 is 1.03 (inactive) and the EC50 was determined as 5.54 µM.

With `Cc1cc(C(=O)N/N=C/c2cc([N+](=O)[O-])cc(C)c2O)n[nH]1`, the fold increase in Dox EC50 was 0.53 (inactive) and the EC50 came out at 2.87 µM.

On to `COc1ccc(-c2ocnc2C(=O)Nc2ccccc2N2CCCCC2)cc1`, for which the fold increase in Dox EC50 is 0.81 (inactive) and the EC50 worked out at 4.37 µM.

Regarding `O=C(COc1cccnc1[N+](=O)[O-])Nc1ccc2c(c1)OC(F)(F)O2`, the fold increase in Dox EC50 was 0.7 (inactive) and the half-maximal effective concentration (EC50) was 3.8 µM.

In the case of `Cc1c(OCC(=O)OC(C)(C)C)ccc2c3c(c(=O)oc12)CCC3`, the fold increase in Dox EC50 was 1.04 (inactive) and the EC50 came to 5.59 µM.

Turning to `Cc1ccc(/C=C2\SC(=S)N(c3c(C)n(C)n(-c4ccccc4)c3=O)C2=O)cc1`, the fold increase in Dox EC50 was 0.97 (inactive) and the EC50 was 5.23 µM.

On to `COc1ccc(-n2ncc3c(N4CCCc5ccccc54)ncnc32)cc1`, for which the fold increase in Dox EC50 is 0.67 (inactive) and the EC50 turned out to be 3.62 µM.

Consider `C=CCSC1=NC(=O)/C(=C/c2cccs2)S1`, for which the fold increase in Dox EC50 is 1.13 (inactive) and the EC50 was determined as 6.1 µM.

For `CCCNC(=O)c1oc2ccc3c(c2c1C)C(=O)CC(C)(C)O3`, the fold increase in Dox EC50 is 0.84 (inactive) and the EC50 turned out to be 4.55 µM.

In the case of `Cc1cc(C)nc(NN2C(=O)/C(=C/c3ccccc3)SC2=S)n1`, the fold increase in Dox EC50 was 1.56 and the concentration giving a half-maximal response (EC50) is 8.42 µM.

With `Cc1cc(C)n(CCC(=O)N/N=C/c2ccccc2O)n1`, the fold increase in Dox EC50 is 0.28 (inactive) and the EC50 amounted to 1.54 µM.

For the compound `CCOC(=S)NC(=O)c1sc2ccccc2c1Cl`, the fold increase in Dox EC50 is 1.32 (inactive) and the concentration giving a half-maximal response (EC50) is 7.13 µM.

Regarding `O=C(NNC1=C(C(=O)C(F)(F)F)CCC1)c1ccc(Cl)cc1`, the fold increase in Dox EC50 was 0.87 (inactive) and the concentration giving a half-maximal response (EC50) worked out at 4.7 µM.

In the case of `CN=c1scc(C)n1/N=C/c1ccc(O)c(O)c1O`, the fold increase in Dox EC50 is 0.92 (inactive) and the EC50 turned out to be 4.95 µM.

On to `Cc1ccc(NC(=O)CCNC(=O)c2ccc(Cl)cc2)cc1F`, for which the fold increase in Dox EC50 is 1.15 (inactive) and the concentration for a half-maximal effect (EC50) amounted to 6.19 µM.

As to `N#Cc1c(-c2ccccc2)nc(SCC(=O)Nc2ccccc2F)[nH]c1=O`, the fold increase in Dox EC50 was 1.79 and the EC50 is 9.66 µM.

For the compound `N#CC(C#N)=NNc1ccc(S(=O)(=O)N2CCCC2)cc1`, the fold increase in Dox EC50 was 1.09 (inactive) and the EC50 was found to be 5.88 µM.

`CCOC(=O)C1=C(C)N=c2s/c(=C\c3ccc(OC(C)=O)cc3)c(=O)n2C1/C=C/c1ccccc1` (stereo not given): the fold increase in Dox EC50 is 0.34 (inactive) and the EC50 amounted to 1.85 µM.

As to `COc1ccc(Cl)cc1NC(=O)CSc1nnc(COc2ccccc2)n1N`, the fold increase in Dox EC50 was 0.86 (inactive) and the EC50 is 4.64 µM.

Turning to `CC(C)CC(=O)n1sc(NC(=O)c2ccccc2)nc1=O`, the fold increase in Dox EC50 was 0.92 (inactive) and the concentration giving a half-maximal response (EC50) is 4.95 µM.

For the compound `CCCCCCCC1CC(CSc2ncn[nH]2)OC1=O` (stereo not given), the fold increase in Dox EC50 was 0.94 (inactive) and the half-maximal effective concentration (EC50) came out at 5.08 µM.

For `COc1ccc(OCc2nc(C#N)c(N3CCN(c4ccc(OC)cc4)CC3)o2)cc1`, the fold increase in Dox EC50 is 0.76 (inactive) and the concentration for a half-maximal effect (EC50) is 4.08 µM.

Take `CCOC(=O)c1cnn(-c2ccccn2)c1N`: the fold increase in Dox EC50 was 0.92 (inactive) and the EC50 worked out at 4.94 µM.

As to `Cn1nc(C(F)(F)F)c2cc(NC(=O)OCc3ccc(C(C)(C)C)cc3)sc21`, the fold increase in Dox EC50 is 0.74 (inactive) and the EC50 came to 4.02 µM.

As to `CCOC(=O)c1sc(-c2ccccc2)cc1NC(=O)Nc1ccccc1`, the fold increase in Dox EC50 is 0.4 (inactive) and the EC50 was determined as 2.16 µM.

On to `Cc1cccc(NC(=O)/C(=C\c2ccc([N+](=O)[O-])o2)NC(=O)c2ccc(Cl)cc2)c1`, for which the fold increase in Dox EC50 is 0.75 (inactive) and the EC50 amounted to 4.04 µM.

As to `CCNc1oc(-c2cccc3ccccc23)nc1C#N`, the fold increase in Dox EC50 is 0.68 (inactive) and the EC50 amounted to 3.68 µM.

Turning to `N#CC1=C(N)SC(N)=C(C#N)C1c1cccc(O)c1`, the fold increase in Dox EC50 is 1.07 (inactive) and the concentration giving a half-maximal response (EC50) came out at 5.78 µM.

Consider `COc1cccc(/C=N/NC(=O)C(=O)NCc2ccco2)c1O`, for which the fold increase in Dox EC50 is 0.65 (inactive) and the EC50 turned out to be 3.54 µM.

As for `O=C(O)CCN1C(=O)CC(N2C(=O)/C(=C/c3ccc(Cl)cc3)SC2=S)C1=O` (stereo not given), the fold increase in Dox EC50 was 1.3 (inactive) and the concentration giving a half-maximal response (EC50) is 7.04 µM.

As to `N#C/C(=N\Nc1ccccc1)C(=N)N1CCOCC1`, the fold increase in Dox EC50 is 1.15 (inactive) and the EC50 worked out at 6.23 µM.

As for `CN=C1S/C(=C\c2cc(C)n(-c3ccccc3F)c2C)C(=O)N1C`, the fold increase in Dox EC50 is 0.65 (inactive) and the concentration for a half-maximal effect (EC50) was determined as 3.49 µM.

`COc1ccc(N2C(=O)C(CC(=O)Nc3ccc(F)cc3)N(CCc3cccs3)C2=O)cc1` (stereo not given): the fold increase in Dox EC50 was 0.81 (inactive) and the half-maximal effective concentration (EC50) worked out at 4.38 µM.

As to `N=C(N)SCc1ccccc1Cl`, the fold increase in Dox EC50 is 0.42 (inactive) and the EC50 was determined as 2.25 µM.

Turning to `CNC[C@H](O)c1ccc(O)c(O)c1`, the fold increase in Dox EC50 was 0.69 (inactive) and the EC50 came to 3.75 µM.

Regarding `CCn1c(C)c(C)c2cc(C(=O)Nc3cccc(Cl)c3)ccc21`, the fold increase in Dox EC50 is 0.43 (inactive) and the EC50 was found to be 2.33 µM.

For `COc1ccc(Nc2nnc(Cc3ccc(Cl)cc3)c(=O)[nH]2)c(OC)c1`, the fold increase in Dox EC50 is 0.91 (inactive) and the concentration giving a half-maximal response (EC50) was 4.93 µM.

As for `COc1ccc(CNc2nc3c(c(=O)n(Cc4ccc(Br)cc4)c(=O)n3C)n2C)cc1`, the fold increase in Dox EC50 was 0.95 (inactive) and the half-maximal effective concentration (EC50) is 5.13 µM.

As to `Cc1cc(NC(=O)CSc2nc(-c3ccccc3)c(C#N)c(=O)[nH]2)no1`, the fold increase in Dox EC50 was 1.51 and the EC50 is 8.14 µM.

In the case of `Cc1n[nH]c(=S)n(/N=C/c2ccccn2)c1=O`, the fold increase in Dox EC50 is 0.91 (inactive) and the half-maximal effective concentration (EC50) amounted to 4.9 µM.

For the compound `Nn1c(SCC(=O)Nc2ccccc2F)nc2ccccc2c1=O`, the fold increase in Dox EC50 is 1.41 (inactive) and the EC50 is 7.59 µM.

Consider `O=C(Nc1nc(COc2ccccc2)cs1)c1ccccc1F`, for which the fold increase in Dox EC50 was 1.76 and the 50% effective concentration (EC50) came out at 9.49 µM.

With `Cc1cc(NC(=O)CN2C(=O)S/C(=C\c3ccccc3)C2=O)no1`, the fold increase in Dox EC50 was 1.03 (inactive) and the EC50 stood at 5.58 µM.

As to `O=C1Nc2ccccc2CCC1Sc1nnc(-c2ccc(Cl)cc2)s1` (stereo not given), the fold increase in Dox EC50 is 1.32 (inactive) and the EC50 worked out at 7.13 µM.

`Cc1c(C(=O)Nc2nnc(C(F)(F)F)s2)oc2ccccc12`: the fold increase in Dox EC50 is 2.05 and the 50% effective concentration (EC50) was found to be 11 µM.

For `Cc1ccc(/C=C2\SC(=S)N(CCC(=O)NNS(=O)(=O)c3ccc(C)cc3)C2=O)cc1`, the fold increase in Dox EC50 is 0.48 (inactive) and the half-maximal effective concentration (EC50) stood at 2.6 µM.
